Results from paper PMC10683482, “Offsetting Low-Affinity Carbohydrate Binding with Covalency to Engage Sugar-Specific Proteins for Tumor-Immune Proximity Induction” (ACS Central Science, 2023).
Read-outs that look alike come from different tables or passages of the source.

Legend:
[1] = test system: serum polyclonal antirhamnose antibodies (human IgG); experiment: BLI affinity of rhamnose probes for polyclonal human IgG; type: binding; settings: for kon: anti-rhamnose assumed 3% of total IgG; for koff: dissociation in 100 mM L-rhamnose
Excerpt: We began by synthesizing antirhamnose affinity probes consisting of α-O/α-S and β-S rhamnose glycosides functionalized with a propargyl group for CuAAC-mediated coupling to a biotin TBD (compounds 1–3, Figure 1A and Scheme S1). This enabled rhamnose immobilization onto streptavidin surfaces and subsequent antibody binding studies. We used biolayer interferometry (BLI) to estimate and compare the apparent affinity of serum polyclonal antirhamnose antibodies for each rhamnose affinity probe (Figure 1B). […] Next, biosensors were submerged in a buffer containing free rhamnose competitor, and dissociation kinetics were measured (Figure 1B, Dissociation). The dissociation buffer contained 100 mM rhamnose competitor to inhibit avidity-based antibody rebinding, which interferes with koff measurements. […] In the context of proximity-inducing molecule development, this low monovalent sugar-binding affinity will ultimately limit ternary complex formation. […] The confirmation of low affinity binding also supports why multivalency has been historically required to efficiently engage antirhamnose antibodies for tumor-immune proximity induction and engage sugar binding receptors in general.
Figure 1 Affinity determination of endogenous and monoclonal antibody sources for L-rhamnose glycoside variants. A. Chemical structures of rhamnose affinity probes. B/C. Approximation of antirhamnose antibody binding affinity for probes 1–3 using biolayer interferometry. B. Purified human serum IgG is used to estimate the affinity of endogenous polyclonal serum antirhamnose antibodies for each affinity probe 1–3. C. Monoclonal anti-23F antibody is used to estimate the potential affinity of vaccine-induced antirhamnose antibodies for each affinity probe 1–3. […] Association was monitored for 900 (B) or 600 (C) seconds. The loaded biosensor probe was then dipped into a dissociation solution of 100 mM L-rhamnose for 600 s. Association curves were fit to a two-phase association model in GraphPad Prism using Kfast to calculate kon. Dissociation curves were similarly fit to a two-phase decay using Kfast to calculate koff. TEXT PRINTED IN THE PICTURE: (B) no label printed: Polyclonal Human IgG: Kd ≈ 7 x10^-5 M | (C) no label printed: Monoclonal Anti-23F: Kd ≈ 6 x10^-6 M DOUBTS OF THE COPYIST ABOUT THIS PICTURE: Panel B, Kd ≈ 7 x10^-5 M: printed once in the plot with no link to a single curve, so it is unclear which of (1) α–O, (2) α–S and (3) β–S it applies to / Panel C, Kd ≈ 6 x10^-6 M: printed once in the plot with no link to a single curve, so it is unclear which of (1) α–O, (2) α–S and (3) β–S it applies to […]
General Notes and Materials […]
Biolayer Interferometry (BLI) General notes and Materials
IgG from human serum was purchased from Innovative Research (IHUI GGAP1000MG). Anti -23F antibody was purchased fr om Creative Biolabs (PABX -173). Biolayer Interferometry (BLI) was conducted using a ForteBio Octet Red96, and streptavidin biosensors (Sartorius - 18-5019) or ProG biosensors (Sartorius – 18-5082). For quench, a 5% skim milk (Nestle Carnation Instant Skim Milk) solution in 1X kinetics buffer was used. The instrument was set at 25 °C, with 1000 RPM, and acquisition rate of 5 Hz.
Each well of a black well plate (Greiner Bio -One - 655086) was filled with 200 µL of appropriate solution.
Dissociation buffer was comprised of L-rhamnose (100 mM, Sigma Aldrich – R3875-10G) in 1X kinetics buffer to reduce avidity contribution to dissociation rate (koff).
SDS-PAGE General notes and Materials […]
Carboxyfluorescein was purchased from Sigma Aldrich (21877 -5G-F). IgG from human serum was purchased from Innovative Research (IHUIGGAP1000MG). Anti -23F antibody was purchased from Creative Biolabs (PABX -173). Laemellie Buffer (2x) was purchased from Sigma Aldrich (S3401 -10VL).
Pre-cast Tris-Glycine Gels (4-20%) were purchased from Fisher Scientific (XP04202BOX). Standard protein ladder was purchased from Bio Rad (1610363). […]

[2] = test system: human serum antirhamnose antibody (IgG and IgM); experiment: ELISA covalent engagement of serum anti-rhamnose antibody; type: binding; settings: 2 μM compound, 2% human serum, 48 h; rhamnose 100 mM added after incubation
Experimental: Figure 2 Capacity of Rha-cARMs to specifically covalently engage monoclonal anti-23F and serum anti-rhamnose. A. Chemical structures of the molecules investigated. B. Assessment of covalent vs noncovalent (cARM/ARM) engagement of human serum antirhamnose antibody via an ELISA assay. Each ARM/cARM (2 μM) was incubated with 2% human serum for 48 h and subsequently incubated directly on a streptavidin ELISA plate. Recruitment was evaluated by the addition of anti-IgG or anti-IgM HRP-conjugated secondary antibody with subsequent chromogenic substrate addition. “Comp” represents the addition of competitor rhamnose (500 mM) during 48 h of incubation. “Quench” refers to the addition of competitor rhamnose (100 mM) prior to ELISA plate binding but after 48 h of reaction incubation. C. SDS-PAGE fluorescent image of anti-23F antibody covalently labeled by fluorophore substituted Rha-cARMs (6–8). A representative protein stain associated with each gel is included on the left side of the fluorescent gel images. In all cases, 2 μM anti-23F antibody is incubated with 4 μM cARM (2 equiv) for 24 h in PBS spiked with 10% human serum. Where noted, L-rhamnose (100 mM, Rha. C) was used during incubation as a competitor for specific covalent labeling. Where noted, a free fluoresceine competitor (2.5 mM, Fluor. C) was used to distinguish fluorescein-promoted covalent labeling from rhamnose-promoted. The darker background in gels corresponding to cARM 6, 7 is attributed to the differing capacity of free cARM-fluorophore (fluoroscein vs A647) to be retained in gel, as well as an alternative imaging channel (Cy2 for fluorescein, Cy5 for A647). […] D. Kinetic SDS-PAGE fluorescence imaging experiment to determine Rha-AI-cARM/anti-23F antibody labeling kinetics using A647-cARM (8). cARM 8 (2–100 μM) was incubated with anti-23F antibody (2 μM) for up to 4 h. A representative fluorescence gel image is included corresponding to compound 8 (50 μM) incubated with either anti-23F antibody or isotype human IgG. Densitometry analysis with ImageJ was used to quantify relative band intensities. […] The error is calculated by alternative fits of initial rates data (all within the linear labeling range).
Next, we tested if cARM tool compounds can selectively label endogenous human polyclonal antirhamnose antibodies via ELISA (4 α-O rhamnose or 5 α-S rhamnose) (Figure 2B). cARMs (4, 5) and noncovalent analog ARMs (1, 2) were incubated with 2% human serum for 48 h followed by addition to a streptavidin-ELISA plate. Antibody recruitment to the plate surface was measured via the addition of HRP-conjugated anti-IgG or anti-IgM secondary antibody, followed by a chromogenic substrate. […] In the absence of a competitor, we observed robust absorbance signal in samples incubated with cARM. […]

[3] = target: prostate-specific membrane antigen (PSMA); settings: cited from earlier work

C[C@@H]1O[C@H](SCc2cn(CCOCCNC(=O)OCCOCCOCCOCCOCCOCCOCCOCCNC(=O)CCCC[C@@H]3SC[C@@H]4NC(=O)N[C@@H]43)nn2)[C@H](O)[C@H](O)[C@H]1O [compound 3]
kon ([1]; 26.2 µM IgG): 19771 M⁻¹ s⁻¹ | koff ([1]; 26.2 µM IgG): 0.576 s⁻¹ | Kd ([1]; 26.2 µM IgG, read-out: Kd): 29 µM | kon ([1]; 52.5 µM IgG): 11537 M⁻¹ s⁻¹ | koff ([1]; 52.5 µM IgG): 0.481 s⁻¹ | Kd ([1]; 52.5 µM IgG, read-out: Kd): 42 µM | kon ([1]; 105 µM IgG): 6254 M⁻¹ s⁻¹ | koff ([1]; 105 µM IgG): 0.3901 s⁻¹ | Kd ([1]; 105 µM IgG, read-out: Kd): 62 µM | Kd ([1]; average of three IgG concentrations, read-out: Avg Kd): 44 ± 17 µM

C[C@@H]1O[C@@H](SCc2cn(CCc3cn(C(=O)OCCOCCOCCOCCOCCOCCOCCOCCNC(=O)CCCC[C@@H]4SC[C@@H]5NC(=O)N[C@@H]54)cn3)nn2)[C@H](O)[C@H](O)[C@H]1O [compound 5]
antibody binding signal, quench control [2]: significant antibody binding signal

glutamate urea [GU]
Kd [3]: < 0.01 µM
